The source made the active and inactive calls.
Legend:
[1] = alpha-synuclein stem-loop luciferase translation blockers – H4 neuroglioma cells, luminescence, confirmation (AID 1988); type: functional, cell-based
[2] = luciferase reporter signal suppression in cells – H4 neuroglioma cells, luminescence, dose response (AID 1990); type: functional, cell-based
Vero = assay: cells; type: functional, cell-based; conditions: Chlorocebus sabaeus
[3] = Luminescence Cell-Based Dose Response HTS to Identify Inhibitors of 5'UTR Stem-Loop Driven Prion Protein mRNA Translation in H4 Neuroglioblastoma Cells. [Related pubchem assays: 1827 (Project Summary), 1813 (Primary HTS)]; type: functional
Genome polyprotein = Genome polyprotein (dengue virus type 2, UniProt P29990); assay: flavivirus cap methylation enzyme inhibition – biochemical, confirmation dose response, primary screen (AID 588689); type: functional
Genome polyprotein, sequence (P29990 2492-3391 limits assumed): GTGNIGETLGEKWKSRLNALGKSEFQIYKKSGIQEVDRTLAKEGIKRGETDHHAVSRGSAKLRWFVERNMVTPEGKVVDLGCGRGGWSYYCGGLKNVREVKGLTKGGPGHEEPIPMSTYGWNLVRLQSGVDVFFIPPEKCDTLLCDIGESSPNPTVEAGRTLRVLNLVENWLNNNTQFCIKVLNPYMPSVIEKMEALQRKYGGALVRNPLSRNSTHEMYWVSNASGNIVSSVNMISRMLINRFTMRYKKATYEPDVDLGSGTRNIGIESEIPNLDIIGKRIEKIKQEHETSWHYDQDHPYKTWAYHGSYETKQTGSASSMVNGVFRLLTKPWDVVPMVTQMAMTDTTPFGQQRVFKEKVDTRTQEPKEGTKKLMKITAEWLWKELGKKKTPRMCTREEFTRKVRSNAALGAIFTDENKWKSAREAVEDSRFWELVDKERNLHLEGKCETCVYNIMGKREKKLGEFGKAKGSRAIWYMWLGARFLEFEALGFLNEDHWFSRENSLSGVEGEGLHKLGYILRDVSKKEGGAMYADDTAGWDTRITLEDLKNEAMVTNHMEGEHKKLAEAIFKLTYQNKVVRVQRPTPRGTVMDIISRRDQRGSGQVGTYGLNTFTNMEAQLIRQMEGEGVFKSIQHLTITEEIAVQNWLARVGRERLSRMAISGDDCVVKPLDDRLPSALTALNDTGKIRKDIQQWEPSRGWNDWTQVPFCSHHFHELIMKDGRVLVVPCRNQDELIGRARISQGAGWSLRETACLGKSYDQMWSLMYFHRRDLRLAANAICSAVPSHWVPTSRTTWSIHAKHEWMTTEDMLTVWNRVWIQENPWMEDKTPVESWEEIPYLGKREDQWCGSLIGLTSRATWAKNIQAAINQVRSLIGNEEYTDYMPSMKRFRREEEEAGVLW

Protein RecA = biological target: T1, Protein RecA (Mycobacterium tuberculosis, UniProt P9WHJ3); assay: Fluorescence Cell-Free Homogeneous Dose Retest to Identify Inhibitors of RecA-Intein Splicing Activity. [Related pubchem assays (depositor defined):AID2097, AID2223, AID489010, AID492950]; type: functional
T1 sequence (P9WHJ3 whole entry): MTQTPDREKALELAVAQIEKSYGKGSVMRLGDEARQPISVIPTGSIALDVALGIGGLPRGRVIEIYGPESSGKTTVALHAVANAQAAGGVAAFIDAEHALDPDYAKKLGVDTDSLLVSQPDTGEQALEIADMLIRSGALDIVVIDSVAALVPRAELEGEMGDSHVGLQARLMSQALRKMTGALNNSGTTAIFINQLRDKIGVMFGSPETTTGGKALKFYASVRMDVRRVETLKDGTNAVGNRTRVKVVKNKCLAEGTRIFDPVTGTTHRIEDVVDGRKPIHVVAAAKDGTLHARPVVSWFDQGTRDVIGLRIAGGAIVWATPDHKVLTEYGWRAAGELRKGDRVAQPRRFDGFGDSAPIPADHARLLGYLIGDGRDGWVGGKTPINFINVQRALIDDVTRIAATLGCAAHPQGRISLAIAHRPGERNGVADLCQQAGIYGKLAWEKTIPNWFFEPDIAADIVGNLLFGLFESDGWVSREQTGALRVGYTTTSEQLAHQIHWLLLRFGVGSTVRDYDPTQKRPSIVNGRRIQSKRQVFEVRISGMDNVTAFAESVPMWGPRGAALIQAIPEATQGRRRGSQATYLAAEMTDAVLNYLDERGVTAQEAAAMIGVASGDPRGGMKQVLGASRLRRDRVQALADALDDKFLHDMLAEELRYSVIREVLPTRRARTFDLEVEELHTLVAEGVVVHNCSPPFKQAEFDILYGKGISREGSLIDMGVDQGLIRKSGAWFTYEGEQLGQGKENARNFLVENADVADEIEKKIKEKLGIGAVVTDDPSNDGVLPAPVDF

[4] = biological target: T2, Replicative DNA helicase DnaB (Mycobacterium tuberculosis, UniProt P9WMR3); assay: DnaB intein splicing inhibitors, dose response, biochemical, cell-free fluorescence (AID 449749); type: functional
T2 sequence (P9WMR3 whole entry): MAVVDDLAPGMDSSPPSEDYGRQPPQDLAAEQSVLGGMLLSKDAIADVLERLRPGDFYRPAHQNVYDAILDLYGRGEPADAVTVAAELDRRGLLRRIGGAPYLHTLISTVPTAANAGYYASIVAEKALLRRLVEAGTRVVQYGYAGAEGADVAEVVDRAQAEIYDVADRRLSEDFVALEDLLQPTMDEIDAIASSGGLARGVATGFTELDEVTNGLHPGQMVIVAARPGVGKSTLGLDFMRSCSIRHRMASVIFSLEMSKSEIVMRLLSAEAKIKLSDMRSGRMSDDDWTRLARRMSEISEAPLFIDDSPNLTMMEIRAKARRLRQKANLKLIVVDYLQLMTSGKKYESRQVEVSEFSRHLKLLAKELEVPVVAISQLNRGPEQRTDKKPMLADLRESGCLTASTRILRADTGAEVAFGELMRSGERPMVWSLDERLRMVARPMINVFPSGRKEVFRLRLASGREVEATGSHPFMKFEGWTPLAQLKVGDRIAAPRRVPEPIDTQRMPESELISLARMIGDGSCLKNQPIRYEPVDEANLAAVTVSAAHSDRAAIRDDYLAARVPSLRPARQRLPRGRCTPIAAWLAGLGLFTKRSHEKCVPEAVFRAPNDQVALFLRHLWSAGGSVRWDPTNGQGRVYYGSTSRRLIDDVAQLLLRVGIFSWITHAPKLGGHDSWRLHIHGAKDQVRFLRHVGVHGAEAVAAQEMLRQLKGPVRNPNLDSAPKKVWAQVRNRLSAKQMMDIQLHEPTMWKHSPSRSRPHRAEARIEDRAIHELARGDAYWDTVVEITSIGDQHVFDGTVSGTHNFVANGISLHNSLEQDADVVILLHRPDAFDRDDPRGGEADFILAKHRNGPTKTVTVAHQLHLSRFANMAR

[5] = blockers of HIV-1 ZM109 envelope-driven cell-cell fusion – HeLa effector, CEM target cells, luciferase, cherry-pick, dose response (AID 652058); type: functional, cell-based;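 further: luciferase signal from HIV-1 Env mediated cell-cell fusion of effector and target cells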
[6] = blockers of HIV-1 envelope-mediated cell-cell fusion – cherry-pick, dose response (AID 652057); type: functional, cell-based
[7] = off-target signal loss in HeLa-CEM21 co-culture – HeLa F-luc CTL cells, cherry-picked, counter-screen for HIV-1 Env fusion inhibitor project, dose response (AID 652040); type: functional, cell-based;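 further: potency for signal decrease marking cytotoxic or nonspecific inhibition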
[8] = HIV-1 AD8 envelope cell-cell fusion blockers – cherry-pick, dose response (AID 652062); type: functional, cell-based;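 further: luciferase signal from cell-cell fusion driven by HIV-1 clade B AD8 Env; potency is for inhibitors of fusion seen as a drop in luminescence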
Cytochrome P450 2C9 [9] = biological target: T3, Cytochrome P450 2C9 (Homo sapiens, UniProt P11712)
T3 sequence (P11712 whole entry): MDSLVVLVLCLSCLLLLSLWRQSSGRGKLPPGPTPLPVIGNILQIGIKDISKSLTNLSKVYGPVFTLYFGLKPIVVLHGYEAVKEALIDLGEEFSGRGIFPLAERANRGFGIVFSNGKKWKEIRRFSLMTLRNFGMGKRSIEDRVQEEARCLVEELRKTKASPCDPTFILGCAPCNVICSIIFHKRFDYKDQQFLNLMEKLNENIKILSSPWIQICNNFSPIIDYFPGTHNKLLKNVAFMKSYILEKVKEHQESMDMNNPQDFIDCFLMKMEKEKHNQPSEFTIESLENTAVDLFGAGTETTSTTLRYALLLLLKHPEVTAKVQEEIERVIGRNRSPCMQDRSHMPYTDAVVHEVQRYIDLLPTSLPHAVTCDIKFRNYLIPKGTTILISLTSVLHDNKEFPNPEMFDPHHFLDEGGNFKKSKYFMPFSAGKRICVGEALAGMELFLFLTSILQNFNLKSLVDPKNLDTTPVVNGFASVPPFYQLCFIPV

[10] = biological target: T4, Microphthalmia-associated transcription factor (Homo sapiens, UniProt O75030); assay: reducers of TRPM1 reporter luminescence, concentration series – cell-based, SK-MEL-5, cherry-picked, set 3, MITF inhibitor project, dose response (AID 493073); type: functional;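 further: SK-MEL-5 melanoma cells with luciferase driven by the MITF target TRPM1 promoter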
T4 sequence (O75030 whole entry): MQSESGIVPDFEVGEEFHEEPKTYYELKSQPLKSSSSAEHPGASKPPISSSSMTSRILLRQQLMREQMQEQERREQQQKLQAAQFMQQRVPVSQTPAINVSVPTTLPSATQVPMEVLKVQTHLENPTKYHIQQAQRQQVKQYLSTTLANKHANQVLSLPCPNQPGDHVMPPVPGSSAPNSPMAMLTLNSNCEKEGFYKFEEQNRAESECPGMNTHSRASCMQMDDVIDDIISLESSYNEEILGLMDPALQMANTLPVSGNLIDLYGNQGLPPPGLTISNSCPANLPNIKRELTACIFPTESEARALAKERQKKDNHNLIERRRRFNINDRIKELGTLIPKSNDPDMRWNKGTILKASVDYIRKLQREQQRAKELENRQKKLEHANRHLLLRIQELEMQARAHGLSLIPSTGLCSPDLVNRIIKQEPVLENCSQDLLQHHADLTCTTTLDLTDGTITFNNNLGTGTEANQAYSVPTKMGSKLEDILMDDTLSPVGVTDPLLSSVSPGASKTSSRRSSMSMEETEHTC

INS1 = assay: INS-1E survival protection against cytokine death – cell-based, luminescence, retest, dose response (AID 449756); type: functional; conditions: Rattus norvegicus;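 further: cell death triggered by IL-1 beta plus TNF-alpha plus IFN-gamma mixture; protective hits raise ATP signal compared with cytokine alone wells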
[11] = Trypanosoma cruzi growth suppression in host cells – NIH3T3 host cells, beta-gal luminescence, confirmation (AID 2044); type: functional, cell-based;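 further: intracellular parasites grown in NIH/3T3 mouse fibroblasts as host cells; luminescent beta-galactosidase reporter signal from transgenic T. cruzi replicating inside host cells; inhibitors lower the luminescence signal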
[12] = NIH3T3 cell viability loss – ATP luminescence, mouse fibroblasts, counter-screen, dose response (AID 2010); type: functional, cell-based;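 further: cells exposed to compound for about 90 hours before reading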
[13] = blockers of bursicon-stimulated LGR2 cAMP reporter – cell-based, HEK293, CRE-luciferase reporter, cherry pick, set 2, dose response (AID 743343); type: functional;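 further: transfected cells were stimulated with diluted bursicon conditioned medium after compound addition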
[14] = viability loss in HEK293 cells – cell-based, plate reader, cherry-picked samples, cytotoxicity control, dose response (AID 743446); type: functional
[15] = blockade of melanocortin 4 receptor signaling – cell-based, plate reader, cherry pick, counter-screen for LGR2 antagonist project, dose response (AID 743444); type: functional;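 further: transfected HEK 293 cells stimulated with alpha-MSH peptide; potency of inhibitors of the alpha-MSH evoked signal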
Cytochrome P450 2C19 = Cytochrome P450 2C19 (Homo sapiens, UniProt P33261); assay: Cytochrome panel assay with activity outcomes. Panel member name: p450-cyp2c19 Compounds with AC50 equal or less than 10 uM are considered active; type: functional; conditions: read-out: AC50
Cytochrome P450 2C19, sequence (P33261 whole entry): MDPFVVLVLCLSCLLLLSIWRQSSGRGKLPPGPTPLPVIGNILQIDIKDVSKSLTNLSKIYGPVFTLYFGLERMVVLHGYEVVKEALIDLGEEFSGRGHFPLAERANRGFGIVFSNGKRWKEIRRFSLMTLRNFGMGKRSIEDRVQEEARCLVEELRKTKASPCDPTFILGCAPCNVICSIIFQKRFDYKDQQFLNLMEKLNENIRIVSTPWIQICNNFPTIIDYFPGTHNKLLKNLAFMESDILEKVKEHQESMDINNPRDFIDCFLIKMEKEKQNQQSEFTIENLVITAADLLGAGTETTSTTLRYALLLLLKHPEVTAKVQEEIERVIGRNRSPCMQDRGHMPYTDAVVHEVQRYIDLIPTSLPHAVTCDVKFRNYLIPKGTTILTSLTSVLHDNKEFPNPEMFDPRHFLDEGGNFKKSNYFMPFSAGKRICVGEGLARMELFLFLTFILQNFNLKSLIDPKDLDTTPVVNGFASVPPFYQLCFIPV

cells = type: functional
Fatty acid synthase = Fatty acid synthase (Homo sapiens, UniProt P49327); assay: inhibition of human FAS-TE enzyme activity – biochemical, kinetic fluorescence intensity, dose response (AID 624326); type: functional;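 further: rate of fluorescence rise from hydrolysis of a fluorogenic O-methyl fluorescein ester substrate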
Fatty acid synthase, sequence (P49327 whole entry): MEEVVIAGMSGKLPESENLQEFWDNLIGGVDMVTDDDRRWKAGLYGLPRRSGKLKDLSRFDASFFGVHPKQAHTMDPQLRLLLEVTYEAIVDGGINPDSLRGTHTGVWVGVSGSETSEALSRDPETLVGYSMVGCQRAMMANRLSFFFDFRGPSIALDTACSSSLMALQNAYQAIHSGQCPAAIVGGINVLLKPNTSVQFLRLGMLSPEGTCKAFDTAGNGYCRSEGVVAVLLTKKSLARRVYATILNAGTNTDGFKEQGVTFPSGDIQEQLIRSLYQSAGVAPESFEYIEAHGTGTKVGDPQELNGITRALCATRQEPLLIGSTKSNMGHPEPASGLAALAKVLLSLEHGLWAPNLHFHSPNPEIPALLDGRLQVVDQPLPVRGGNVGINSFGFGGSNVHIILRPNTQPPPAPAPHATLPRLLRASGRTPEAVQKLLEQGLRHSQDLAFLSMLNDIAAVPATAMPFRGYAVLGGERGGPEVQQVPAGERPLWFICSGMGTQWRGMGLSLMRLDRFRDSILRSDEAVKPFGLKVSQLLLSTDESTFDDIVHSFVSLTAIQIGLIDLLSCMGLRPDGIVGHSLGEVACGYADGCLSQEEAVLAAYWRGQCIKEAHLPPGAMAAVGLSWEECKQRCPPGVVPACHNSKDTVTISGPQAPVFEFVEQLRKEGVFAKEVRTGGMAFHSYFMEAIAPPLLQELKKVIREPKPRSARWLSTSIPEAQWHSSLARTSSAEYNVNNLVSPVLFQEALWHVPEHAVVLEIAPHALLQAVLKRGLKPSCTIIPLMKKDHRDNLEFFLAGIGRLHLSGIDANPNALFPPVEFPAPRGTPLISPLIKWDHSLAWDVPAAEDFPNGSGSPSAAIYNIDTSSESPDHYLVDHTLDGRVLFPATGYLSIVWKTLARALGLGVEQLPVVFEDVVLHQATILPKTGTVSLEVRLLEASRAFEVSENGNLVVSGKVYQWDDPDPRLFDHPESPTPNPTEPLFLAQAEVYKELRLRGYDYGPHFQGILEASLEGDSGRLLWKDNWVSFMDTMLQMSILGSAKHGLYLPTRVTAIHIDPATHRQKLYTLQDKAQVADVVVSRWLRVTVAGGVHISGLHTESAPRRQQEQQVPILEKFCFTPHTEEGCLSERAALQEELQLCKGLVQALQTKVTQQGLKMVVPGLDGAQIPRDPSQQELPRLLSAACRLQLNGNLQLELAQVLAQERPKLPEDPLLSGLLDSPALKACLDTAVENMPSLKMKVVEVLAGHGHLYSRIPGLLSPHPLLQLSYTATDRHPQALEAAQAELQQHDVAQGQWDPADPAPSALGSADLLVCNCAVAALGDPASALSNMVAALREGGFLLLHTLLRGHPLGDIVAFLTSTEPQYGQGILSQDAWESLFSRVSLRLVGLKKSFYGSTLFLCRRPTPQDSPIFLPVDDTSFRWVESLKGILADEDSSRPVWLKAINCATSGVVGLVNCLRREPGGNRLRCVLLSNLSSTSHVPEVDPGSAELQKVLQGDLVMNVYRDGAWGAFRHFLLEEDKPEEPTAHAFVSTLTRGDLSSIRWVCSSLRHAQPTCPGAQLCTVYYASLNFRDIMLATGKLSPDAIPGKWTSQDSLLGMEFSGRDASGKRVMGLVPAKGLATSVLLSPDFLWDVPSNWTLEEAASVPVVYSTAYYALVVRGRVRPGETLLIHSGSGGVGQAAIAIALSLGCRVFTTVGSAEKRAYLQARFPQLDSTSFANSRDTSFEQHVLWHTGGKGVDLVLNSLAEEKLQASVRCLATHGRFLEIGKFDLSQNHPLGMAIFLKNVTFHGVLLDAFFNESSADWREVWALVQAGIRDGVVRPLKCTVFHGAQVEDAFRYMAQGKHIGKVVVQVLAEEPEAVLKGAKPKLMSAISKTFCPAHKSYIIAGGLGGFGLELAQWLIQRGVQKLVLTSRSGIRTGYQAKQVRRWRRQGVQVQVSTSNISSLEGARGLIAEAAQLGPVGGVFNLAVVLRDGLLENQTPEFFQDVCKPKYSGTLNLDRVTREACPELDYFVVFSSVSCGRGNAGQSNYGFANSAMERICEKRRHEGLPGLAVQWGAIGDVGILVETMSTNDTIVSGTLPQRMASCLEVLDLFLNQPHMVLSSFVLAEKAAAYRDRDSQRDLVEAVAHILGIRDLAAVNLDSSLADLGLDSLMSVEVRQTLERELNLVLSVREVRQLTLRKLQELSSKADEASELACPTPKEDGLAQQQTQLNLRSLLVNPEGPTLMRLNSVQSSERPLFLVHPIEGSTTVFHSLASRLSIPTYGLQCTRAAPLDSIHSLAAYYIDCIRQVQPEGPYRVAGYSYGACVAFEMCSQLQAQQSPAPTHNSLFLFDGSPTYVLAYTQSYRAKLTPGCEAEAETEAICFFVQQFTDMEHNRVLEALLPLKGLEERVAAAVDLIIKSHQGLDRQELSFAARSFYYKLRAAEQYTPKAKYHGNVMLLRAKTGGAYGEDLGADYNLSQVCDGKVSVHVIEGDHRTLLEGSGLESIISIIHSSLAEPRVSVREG

Cytochrome P450 3A4 = Cytochrome P450 3A4 (Homo sapiens, UniProt P08684);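 further: CYP3A4 tested as one member of a cytochrome P450 panel screen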
Cytochrome P450 3A4, sequence (P08684 whole entry): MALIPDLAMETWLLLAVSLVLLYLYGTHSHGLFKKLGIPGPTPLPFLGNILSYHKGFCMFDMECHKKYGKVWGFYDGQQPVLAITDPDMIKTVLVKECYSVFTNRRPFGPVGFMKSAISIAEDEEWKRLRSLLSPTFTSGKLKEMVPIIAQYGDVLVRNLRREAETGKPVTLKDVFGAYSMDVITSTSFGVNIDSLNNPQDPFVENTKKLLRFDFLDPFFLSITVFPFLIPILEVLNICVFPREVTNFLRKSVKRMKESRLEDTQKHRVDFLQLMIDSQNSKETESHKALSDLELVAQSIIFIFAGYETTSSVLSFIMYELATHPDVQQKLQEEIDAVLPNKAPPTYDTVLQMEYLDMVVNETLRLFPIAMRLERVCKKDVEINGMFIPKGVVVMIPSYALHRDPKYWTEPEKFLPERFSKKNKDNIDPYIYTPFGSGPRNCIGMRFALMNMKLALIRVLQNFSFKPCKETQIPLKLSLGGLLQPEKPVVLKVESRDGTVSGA

Coagulation factor XII = biological target: T5, Coagulation factor XII (Homo sapiens, UniProt P00748); type: functional;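 further: activated factor XIIa alpha cleaving a fluorogenic AMC peptide substrate; inhibitor potency from loss of enzyme activity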
T5 sequence (P00748 whole entry): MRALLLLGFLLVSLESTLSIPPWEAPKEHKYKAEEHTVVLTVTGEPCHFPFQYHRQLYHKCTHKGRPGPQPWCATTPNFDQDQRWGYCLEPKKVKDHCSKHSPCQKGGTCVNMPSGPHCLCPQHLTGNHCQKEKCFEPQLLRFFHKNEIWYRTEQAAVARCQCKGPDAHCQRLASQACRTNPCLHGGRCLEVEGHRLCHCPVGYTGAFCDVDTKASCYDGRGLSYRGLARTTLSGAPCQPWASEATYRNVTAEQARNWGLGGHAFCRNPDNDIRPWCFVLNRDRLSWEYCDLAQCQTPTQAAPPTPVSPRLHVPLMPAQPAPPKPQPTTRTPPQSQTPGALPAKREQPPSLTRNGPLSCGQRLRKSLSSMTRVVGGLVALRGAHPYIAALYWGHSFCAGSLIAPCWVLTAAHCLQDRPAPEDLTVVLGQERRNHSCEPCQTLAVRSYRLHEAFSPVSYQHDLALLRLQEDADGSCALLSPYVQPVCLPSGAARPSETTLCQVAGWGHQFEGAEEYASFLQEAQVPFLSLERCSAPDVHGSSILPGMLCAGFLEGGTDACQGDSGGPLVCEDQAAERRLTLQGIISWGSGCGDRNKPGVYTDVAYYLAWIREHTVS

Cytochrome P450 2C9 [16] = biological target: T3, Cytochrome P450 2C9; remark: listed apart in the source
Cytochrome P450 2D6 = Cytochrome P450 2D6 (Homo sapiens, UniProt P10635);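 further: CYP2D6 member of a cytochrome P450 panel assay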

Nc1[nH]nc2nc(NCc3ccccc3)c3c(c12)CCN(Cc1ccccc1)C3
EC50 [1]: > 120 µM (not active) | EC50 [2]: 20.1 µM (active) | IC50 (Vero): > 25 µM (active) | EC50 [3]: 16.3 µM (active)

COc1ccc(OC)c(N2C(=O)C(Cl)=C(N3CCOCC3)C2=O)c1
IC50 (Genome polyprotein): 18.1 µM (active) | EC50 (Protein RecA): 26.3 µM (active) | AC50 [4]: 145 µM (active)

CCOC(=O)c1c(CSc2ccsc2)n(C)c2cc(Br)c(O)c(CN(C)C)c12
AC50 [5]: 2.34 µM (active) | AC50 [6]: 1.3 µM (active) | AC50 [7]: 2.45 µM (active) | AC50 [8]: 4.04 µM (active)

C=CCSC[C@@H]1Nc2cc(Cl)c(S(N)(=O)=O)cc2S(=O)(=O)N1
AC50 (Cytochrome P450 2C9 [9]): inconclusive

O=C(CCl)N(Cc1cc(O)nc2ccccc12)c1ccccc1
EC50 (Protein RecA): 2.38 µM (active) | AC50 [4]: 5.06 µM (active) | AC50 [10]: 5.42 µM (active)

COc1cc(NC(=O)c2ccc([N+](=O)[O-])o2)ccc1NC(=O)c1cccs1
AC50 (INS1): 11.2 µM (active) | EC50 [11]: 0.548 µM (active) | AC50 [10]: 8.46 µM (active) | EC50 [12]: > 60 µM (not active)

COc1ccc(C(=O)NC2CCCc3c2cnn3-c2cccc(C)c2C)o1 (stereo not given)
IC50 (Vero): > 25 µM (active)

CON(C)c1nc(OCCNC(=O)OCc2ccc(Cl)cc2C)nc(N(C)C)n1
AC50 [5]: 2.22 µM (active) | AC50 [6]: 1.29 µM (active) | AC50 [7]: 2.32 µM (active) | AC50 [8]: 0.357 µM (active)

CC(C)OP(=O)(Nc1cccc2ccccc12)OC(C)C
AC50 [5]: 5.55 µM (active) | AC50 [6]: 4.78 µM (active) | AC50 [7]: 5.98 µM (active) | AC50 [8]: 7.86 µM (active)

Clc1ccc(OCc2nc(-c3ccccn3)no2)c(Br)c1
AC50 [13]: 6.73 µM (active) | AC50 [14]: 27.6 µM (active) | AC50 [15]: 10.6 µM (active)

CCOc1cc2c(C)cc(=O)oc2cc1Cl
AC50 (Cytochrome P450 2C9 [9]): inconclusive | AC50 (Cytochrome P450 2C19): 14.1 µM (inconclusive)

Cc1cccc(-n2cccc2)c1C#N
AC50 (Cytochrome P450 2C9 [9]): inconclusive

C#CCOc1ccc(/C=C2/C(=O)N(c3cccc(C(=O)O)c3)N=C2C)cc1OC
IC50 (Genome polyprotein): 8.42 µM (active) | EC50 (Protein RecA): 2.01 µM (active) | AC50 [4]: 2.41 µM (active)

CCC(C)n1nnc2c(=O)oc3ccccc3c21 (stereo not given)
AC50 (Cytochrome P450 2C9 [9]): inconclusive | AC50 (Cytochrome P450 2C19): 8.91 µM (inconclusive) | IC50 (cells): 5.77 µM (active)

O=[N+]([O-])c1cccc(/C=C/c2nc(O)nc(O)c2[N+](=O)[O-])c1
IC50 (Genome polyprotein): 72.8 µM (active)

Cc1ccccc1-c1nc(N2CCOCC2)c2ccccc2n1
AC50 (Cytochrome P450 2C9 [9]): inconclusive | AC50 (Cytochrome P450 2C19): 39.8 µM (inconclusive)

NC(=NOC(=O)CCCc1ccccc1)c1cccc([N+](=O)[O-])c1
IC50 (Fatty acid synthase): 11.6 µM (active)

OC1(c2cccs2)C[N+](c2ccc(Br)cc2)=C2SCCCN21 (stereo not given)
IC50 (Vero): 14.9 µM (active)

Cc1cccc2cc(=O)[nH]c(C)c12
AC50 (Cytochrome P450 2C9 [9]): inconclusive

CCCC(=O)/N=C1\SC2CS(=O)(=O)CC2N1c1ccc(CC)cc1 (stereo not given)
AC50 (Cytochrome P450 3A4): 12.6 µM (inconclusive) | IC50 (Coagulation factor XII): > 50 µM (inactive) | AC50 (Cytochrome P450 2C9 [16]): 10 µM (inconclusive) | AC50 (Cytochrome P450 2D6): 15.8 µM (inconclusive)
